Measurements as given in US10477864B2, “Microbiocidal quinoline (thio)carboxamide derivatives” (priority 2016, dated 2019).

Columns and labels:
[1] = test system: Monographella nivalis (Microdochium nivale); assay: Monographella nivalis (Microdochium nivale) / liquid culture (foot rot cereals); format: cell-based; conditions: 96 h, read-out: control of Monographella nivalis
[2] = test system: Botryotinia fuckeliana (Botrytis cinerea); assay: Botryotinia fuckeliana (Botrytis cinerea) / liquid culture (gray mould); format: cell-based; conditions: 72 h, read-out: control of Botryotinia fuckeliana
[3] = test system: Fusarium culmorum; assay: microbe, parasite or virus in culture; format: cell-based; conditions: read-out: control of Fusarium culmorum
[4] = test system: Fusarium culmorum; assay: whole plant or invertebrate; format: in vivo; conditions: in Triticum aestivum, read-out: control of Fusarium culmorum
[5] = test system: Glomerella lagenarium (Colletotrichum lagenarium); assay: Glomerella lagenarium (Colletotrichum lagenarium) / liquid culture (anthracnose); format: cell-based; conditions: Colletotrichum orbiculare; read-out: control of Glomerella lagenarium
[6] = test system: Magnaporthe grisea (Pyricularia oryzae); assay: microbe, parasite or virus in culture; format: cell-based; conditions: 72 h, read-out: control of Magnaporthe grisea

SMILES | inhibition of growth at 200 ppm [1] | melting point | inhibition of growth at 200 ppm [2] | inhibition of growth at 200 ppm [3] | pest or weed control at 200 ppm [4] | inhibition of growth at 200 ppm [5] | inhibition of growth at 200 ppm [6]
COc1cccc2cc(C(=O)NC(C)(Cc3ccccc3)CC(C)C)cnc12 (stereo not shown) [Compound E-123, N-(1-benzyl-1,3-dimethyl-butyl)-8-methoxy-quinoline-3-carboxamide] | ≥ 80% | 155 to 156 °C | ≥ 80% | ≥ 80% |  |  | 
C=C(C)CC(C)(NC(=O)c1cnc2c(F)cccc2c1)C(F)(F)c1ccccc1 (stereo not shown) [Compound E-51, N-[1-[difluoro(phenyl)methyl]-1,3-dimethyl-but-3-enyl]-8-fluoro-quinoline-3-carboxamide] |  |  | ≥ 80% | ≥ 80% | ≥ 80% | ≥ 80% | ≥ 80%
CC(Cc1ccccc1)(CC(F)(F)F)NC(=O)c1cnc2c(C#N)cccc2c1 (stereo not shown) [Compound E-62, N-(1-benzyl-3,3,3-trifluoro-1-methyl-propyl)-8-cyano-quinoline-3-carboxamide] |  | 175 to 179 °C | ≥ 80% | ≥ 80% | ≥ 80% | ≥ 80% | ≥ 80%
COC(C)(C)CC(C)(Cc1ccccc1)NC(=O)c1cnc2c(F)cccc2c1 (stereo not shown) [Compound E-118, N-(1-benzyl-3-methoxy-1,3-dimethyl-butyl)-8-fluoro-quinoline-3-carboxamide] | ≥ 80% | 118 to 120 °C | ≥ 80% | ≥ 80% |  | ≥ 80% | 
O=C(NC(CCC(F)(F)F)Cc1ccccc1)c1cnc2c(F)cccc2c1 (stereo not shown) [Compound E-16, N-(1-benzyl-4,4,4-trifluoro-butyl)-8-fluoro-quinoline-3-carboxamide] |  | 157 to 161 °C | ≥ 80% | ≥ 80% | ≥ 80% |  | ≥ 80%
CC(Cc1cccc(F)c1)(CC(F)(F)F)NC(=O)c1cnc2c(F)cccc2c1 (stereo not shown) [Compound E-99, 8-fluoro-N-[3,3,3-trifluoro-1-[(3-fluorophenyl)methyl]-1-methyl-propyl]quinoline-3-carboxamide] | ≥ 80% | 149 to 151 °C | ≥ 80% | ≥ 80% | ≥ 80% | ≥ 80% | 
C[C@](Cc1ccccc1)(CC(F)(F)F)NC(=O)c1cnc2c(F)c(F)ccc2c1 [Compound F-37, N-[(1S)-1-benzyl-3,3,3-trifluoro-1-methyl-propyl]-7,8-difluoro-quinoline-3-carboxamide] |  |  | ≥ 80% | ≥ 80% | ≥ 80% | ≥ 80% | ≥ 80%
CC(Cc1ccccc1)(CC(F)(F)F)NC(=O)c1cnc2cc(Cl)ccc2c1 (stereo not shown) [Compound E-69, N-(1-benzyl-3,3,3-trifluoro-1-methyl-propyl)-7-chloro-quinoline-3-carboxamide] |  | 174 to 176 °C | ≥ 80% | ≥ 80% | ≥ 80% | ≥ 80% | ≥ 80%
CC(F)(F)C[C@@](C)(Cc1ccccc1)NC(=O)c1cnc2c(F)cccc2c1 [Compound F-40, N-[(1R)-1-benzyl-3,3-difluoro-1-methyl-butyl]-8-fluoro-quinoline-3-carboxamide] |  |  | ≥ 80% | ≥ 80% | ≥ 80% | ≥ 80% | ≥ 80%
COc1ccc2cc(C(=O)NC(C)(Cc3ccccc3)CC(C)C)cnc2c1 (stereo not shown) [Compound E-122, N-(1-benzyl-1,3-dimethyl-butyl)-7-methoxy-quinoline-3-carboxamide] | ≥ 80% | 136 to 138 °C |  |  |  |  | 
CC(F)(F)CC(C)(Cc1ccccc1)NC(=O)c1cnc2c(F)cccc2c1 (stereo not shown) [Compound E-50, N-(1-benzyl-3,3-difluoro-1-methyl-butyl)-8-fluoro-quinoline-3-carboxamide] |  |  | ≥ 80% | ≥ 80% | ≥ 80% | ≥ 80% | ≥ 80%
CC(F)(F)CC(C)(Cc1ccccc1)NC(=O)c1cnc2ccccc2c1 (stereo not shown) [Compound E-52, N-(1-benzyl-3,3-difluoro-1-methyl-butyl)quinoline-3-carboxamide] |  | 131 to 133 °C | ≥ 80% | ≥ 80% | ≥ 80% | ≥ 80% | ≥ 80%
Cc1c(C(=O)N[C@@](C)(Cc2ccccc2)CC(F)(F)F)cnc2c(F)cccc12 [Compound F-29, N-[(1S)-1-benzyl-3,3,3-trifluoro-1-methyl-propyl]-8-fluoro-4-methyl-quinoline-3-carboxamide] | ≥ 80% |  | ≥ 80% | ≥ 80% | ≥ 80% | ≥ 80% | 
CC(C)CC(C)(Cc1ccc(C#N)cc1)NC(=O)c1cnc2c(F)cccc2c1 (stereo not shown) [Compound E-32, N-[1-[(4-cyanophenyl)methyl]-1,3-dimethyl-butyl]-8-fluoro-quinoline-3-carboxamide] |  | 67 to 69 °C | ≥ 80% | ≥ 80% |  | ≥ 80% | ≥ 80%
CC(C)CC(C)(Cc1ccccc1C#N)NC(=O)c1cnc2c(F)cccc2c1 (stereo not shown) [Compound E-44, N-[1-[(2-cyanophenyl)methyl]-1,3-dimethyl-butyl]-8-fluoro-quinoline-3-carboxamide] |  | 43 to 44 °C | ≥ 80% | ≥ 80% | ≥ 80% | ≥ 80% | ≥ 80%
C=C(C)C[C@](C)(Cc1ccccc1)NC(=O)c1cnc2c(F)c(F)ccc2c1 [Compound F-20, N-[(1R)-1-benzyl-1,3-dimethyl-but-3-enyl]-7,8-difluoro-quinoline-3-carboxamide] | ≥ 80% |  | ≥ 80% | ≥ 80% | ≥ 80% | ≥ 80% | 
CC(C)CC(C)(NC(=O)c1cnc2c(F)cccc2c1)C(F)(F)c1ccccc1 (stereo not shown) [Compound E-54, N-[1-[difluoro(phenyl)methyl]-1,3-dimethyl-butyl]-8-fluoro-quinoline-3-carboxamide] | ≥ 80% |  | ≥ 80% | ≥ 80% |  | ≥ 80% | ≥ 80%
C=C(C)CC(COC)(Cc1ccccc1)NC(=O)c1cnc2c(F)cccc2c1 (stereo not shown) [Compound E-103, N-[1-benzyl-1-(methoxymethyl)-3-methyl-but-3-enyl]-8-fluoro-quinoline-3-carboxamide] | ≥ 80% | 147 to 149 °C | ≥ 80% | ≥ 80% | ≥ 80% | ≥ 80% | 
CC(Cc1ccc(F)cc1)(CC(F)(F)F)NC(=O)c1cnc2c(F)cccc2c1 (stereo not shown) [Compound E-66, 8-fluoro-N-[3,3,3-trifluoro-1-[(4-fluorophenyl)methyl]-1-methyl-propyl]quinoline-3-carboxamide] |  | 146 to 147 °C | ≥ 80% | ≥ 80% | ≥ 80% | ≥ 80% | ≥ 80%
C[C@@](Cc1ccccc1)(CC(F)(F)F)NC(=O)c1cnc2c(F)c(F)ccc2c1 [Compound F-38, N-[(1R)-1-benzyl-3,3,3-trifluoro-1-methyl-propyl]-7,8-difluoro-quinoline-3-carboxamide] |  |  | ≥ 80% | ≥ 80% |  | ≥ 80% | ≥ 80%
CC(C)CC(C)(Cc1ccccc1)NC(=O)c1cnc2cc(Cl)ccc2c1 (stereo not shown) [Compound E-65, N-(1-benzyl-1,3-dimethyl-butyl)-7-chloro-quinoline-3-carboxamide] |  | 172 to 174 °C | ≥ 80% | ≥ 80% |  |  | ≥ 80%
Cc1cccc2cc(C(=O)N[C@@](C)(Cc3ccccc3)CC(F)(F)F)cnc12 [Compound F-27, N-[(1S)-1-benzyl-3,3,3-trifluoro-1-methyl-propyl]-8-methyl-quinoline-3-carboxamide] | ≥ 80% |  | ≥ 80% | ≥ 80% | ≥ 80% | ≥ 80% | 
CC(Cc1ccccc1)(CC1CCC1)NC(=O)c1cnc2c(F)cccc2c1 (stereo not shown) [Compound E-112, N-(1-benzyl-2-cyclobutyl-1-methyl-ethyl)-8-fluoro-quinoline-3-carboxamide] | ≥ 80% | 125 to 127 °C | ≥ 80% | ≥ 80% |  | ≥ 80% | 
C=CCC(Cc1ccccc1)(NC(=O)c1cnc2c(F)cccc2c1)C(F)(F)F (stereo not shown) [Compound E-92, N-[1-benzyl-1-(trifluoromethyl)but-3-enyl]-8-fluoro-quinoline-3-carboxamide] | ≥ 80% |  | ≥ 80% | ≥ 80% | ≥ 80% | ≥ 80% | 
